How the values were obtained:
Lewis rats [1] = experiment: Lewis rat adjuvant-induced arthritis, treatment test procedure; assay type: in vivo; conditions: for joint inflammation score (maximal score per day 12): 10 mg/kg sc daily, treatment begun Day 8 after adjuvant
HLA-B27 rats = experiment: HLA rat test procedure for inflammatory bowel disease; assay type: in vivo; conditions: for stool character, group's average score: 10 mg/kg oral daily, 3=diarrhea, 2=soft, 1=normal stool
Protocol: Representative compounds of the invention were evaluated in the HLA rat standard pharmacological test procedure which emulates inflammatory bowel disease in humans. The following briefly describes the procedure used and results obtained. Male HLA-B27 rats were obtained from Taconic and provided unrestricted access to food (PMI Lab diet 5001) and water. Rats were dosed once daily (orally) with either vehicle (2% tween-80/0.5% methylcellulose) or Example 1d (10 mg/kg) for 26 days. Stool quality was observed daily and graded according to the following scale: Diarrhea=3; soft stool=2; normal stool=1. […] At the end of the study, serum was collected and stored at −70° C. A section of colon was prepared for histological analysis and an additional segment was analyzed for myeloperoxidase activity.
Histological analysis. Colonic tissue was immersed in 10% neutral buffered formalin. Each specimen of colon was separated into four samples for evaluation. The formalin-fixed tissues were processed in a Tissue Tek vacuum infiltration processor (Miles, Inc; West Haven, Conn.) for paraffin embedding. The samples were sectioned at 5 μm and then stained with hematoxylin and eosin (H&E) for blinded histologic evaluations using a scale modified after Boughton-Smith. After the scores were completed the samples were unblinded, and data were tabulated and analyzed by ANOVA linear modeling with multiple mean comparisons. Sections of colonic tissue were evaluated for several disease indicators and given relative scores.

Lewis rats [2] = experiment: Lewis rat adjuvant-induced arthritis, inhibition test procedure; assay type: in vivo; conditions: 10 mg/kg sc daily from Day 1
casein kinase II mRNA = experiment: Mammary end bud test procedure (rat mammotrophic assay); assay type: in vivo; conditions: 20 mg/kg sc + progesterone 30 mg/kg; ovariectomized rats; vehicle 1.61 ± 0.36
Protocol: Estrogens are required for full ductal elongation and branching of the mammary ducts, and the subsequent development of lobulo-alveolar end buds under the influence of progesterone. In this test procedure, the mammotrophic activity of selected compounds of the invention was evaluated according to the following standard pharmacological test procedure. Twenty-eight day old Sprague-Dawley rats (Taconic Farms, Germantown, N.Y.) were ovariectomized and rested for nine days. […] For the final three days, rats were also dosed subcutaneously with progesterone (30 mg/kg). On the seventh day, rats were euthanised and a mammary fat pad excised. This fat pad was analyzed for casein kinase II mRNA as a marker of end bud proliferation. Casein kinase II mRNA was anlayzed by real-time RT-PCR. Briefly, RNA was isolated following Trizol (GibcoBRL, Grand Island, N.Y.) according to the manufacture's directions, Samples were treated with DNAse I using DNA-free kit (Ambion), and casein kinase II mRNA levels were measured by real-time RT-PCR using the Taqman Gold procedure (PE Applied Biosystems). […] Casein kinase II mRNA levels were normalized to 18s ribosomal RNA contained within each sample reaction using primers and probe supplied by PE Applied Biosystems. The following results were obtained for an example of the invention (Table (4)).

human ERα = target: T1, human ERα (Homo sapiens, UniProt P03372); experiment: Radioligand binding competition with [3H]-17β-estradiol, ERα; conditions: human ERα ligand binding domain, read-out: ER-α IC50
T1 construct: amino acids M250-V595 of human ERα; His (N); made in house; host or cells: E. coli BL21(DE3), clarified lysate
T1 sequence (P03372 250-595): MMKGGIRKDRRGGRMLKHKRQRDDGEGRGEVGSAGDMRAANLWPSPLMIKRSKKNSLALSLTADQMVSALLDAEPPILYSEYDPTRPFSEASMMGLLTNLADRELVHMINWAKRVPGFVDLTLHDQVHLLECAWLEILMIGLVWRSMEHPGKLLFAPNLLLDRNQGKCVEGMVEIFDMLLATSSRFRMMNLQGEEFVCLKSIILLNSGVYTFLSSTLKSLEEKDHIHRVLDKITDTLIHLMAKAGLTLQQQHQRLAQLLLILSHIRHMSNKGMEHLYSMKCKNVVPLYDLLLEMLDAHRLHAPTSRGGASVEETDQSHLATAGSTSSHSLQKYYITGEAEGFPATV

[3] = tarsal joints, 10 mg/kg, vehicle 2.58 ± 0.38

N#Cc1cc2c(c3ccc(O)cc13)OCc1cc(O)ccc1-2 [Example 1d, 2,8-Dihydroxy-6H-dibenzo[c,h]chromene-12-carbonitrile]
joint inflammation score (maximal score per day 12) (Lewis rats [1]; day 1, vehicle 10.83): 11.33
joint inflammation score (maximal score per day 12) (Lewis rats [1]; day 2, vehicle 11.00): 11.15
joint inflammation score (maximal score per day 12) (Lewis rats [1]; day 3, vehicle 10.83): 11.33
joint inflammation score (maximal score per day 12) (Lewis rats [1]; day 4, vehicle 11.33): 9.83
joint inflammation score (maximal score per day 12) (Lewis rats [1]; day 5, vehicle 11.50): 8.83
joint inflammation score (maximal score per day 12) (Lewis rats [1]; day 6, vehicle 11.50): 7.83
joint inflammation score (maximal score per day 12) (Lewis rats [1]; day 7, vehicle 11.50): 6.16
joint inflammation score (maximal score per day 12) (Lewis rats [1]; day 8, vehicle 11.50): 5.00
joint inflammation score (maximal score per day 12) (Lewis rats [1]; day 9, vehicle 11.00): 4.33
joint inflammation score (maximal score per day 12) (Lewis rats [1]; day 10, vehicle 11.00): 2.66
joint inflammation score (maximal score per day 12) (Lewis rats [1]; day 11, vehicle 10.66): 1.83
joint inflammation score (maximal score per day 12) (Lewis rats [1]; day 12, vehicle 10.66): 1.83
joint inflammation score (maximal score per day 12) (Lewis rats [1]; day 13, vehicle 10.50): 2.66
joint inflammation score (maximal score per day 12) (Lewis rats [1]; day 14, vehicle 9.83): 2.66
joint inflammation score (maximal score per day 12) (Lewis rats [1]; day 15, vehicle 8.10): 2.00
joint inflammation score (maximal score per day 12) (Lewis rats [1]; day 16, vehicle 7.35): 2.00
joint inflammation score (maximal score per day 12) (Lewis rats [1]; day 17, vehicle 6.50): 1.50
Tidemark Integrity (0-1), Mankin score (Lewis rats [1]; tarsal joints, 10 mg/kg, vehicle 0): 0
Pannus (0-1), synovitis histological score, mean ± SD (Lewis rats [1]; tarsal joints, 10 mg/kg, vehicle 1.00 ± 0.89): 0.08 ± 0.20
Fibroplasia (0-3), synovitis histological score, mean ± SD (Lewis rats [1]; tarsal joints, 10 mg/kg, vehicle 1.75 ± 0.42): 0.75 ± 0.42
Saffranin-O/Fast Green Staining (0-4), Mankin score, mean ± SD (Lewis rats [1]; tarsal joints, 10 mg/kg, vehicle 2.50 ± 0.32): 1.25 ± 0.61
Cartilage Cells (0-3), Mankin score, mean ± SD (Lewis rats [1]; [3]): 0.58 ± 0.38
Synovial Structure (0-3), synovitis histological score, mean ± SD (Lewis rats [1]; [3]): 1.75 ± 0.52
Cartilage Structure (0-6), Mankin score, mean ± SD (Lewis rats [1]; tarsal joints, 10 mg/kg, vehicle 2.83 ± 0.26): 1.67 ± 0.41
Inflammatory Cells (0-3), synovitis histological score, mean ± SD (Lewis rats [1]; tarsal joints, 10 mg/kg, vehicle 2.92 ± 0.20): 1.33 ± 0.41
Total Mankin Score (0-14), mean ± SD (Lewis rats [1]; tarsal joints, 10 mg/kg, vehicle 7.92 ± 0.74): 3.50 ± 1.27
Total Synovitis Score (0-10), mean ± SD (Lewis rats [1]; tarsal joints, 10 mg/kg, vehicle 8.25 ± 1.57): 3.92 ± 1.36
stool quality (HLA-B27 rats; 10 mg/kg orally once daily for 26 days): stool quality improved
stool character, group's average score (HLA-B27 rats; day 1, vehicle 1): 1
stool character, group's average score (HLA-B27 rats; day 2, vehicle 1): 1
stool character, group's average score (HLA-B27 rats; day 3, vehicle 1): 1
stool character, group's average score (HLA-B27 rats; day 4, vehicle 1.25): 1
stool character, group's average score (HLA-B27 rats; day 5, vehicle 2.5): 1.5
stool character, group's average score (HLA-B27 rats; day 6, vehicle 2.75): 1.25
stool character, group's average score (HLA-B27 rats; day 7, vehicle 2.75): 1.25
stool character, group's average score (HLA-B27 rats; day 8, vehicle 2.75): 1
stool character, group's average score (HLA-B27 rats; day 9, vehicle 3): 1.25
stool character, group's average score (HLA-B27 rats; day 10, vehicle 3): 1
stool character, group's average score (HLA-B27 rats; day 11, vehicle 2.75): 1.25
stool character, group's average score (HLA-B27 rats; day 12, vehicle 2.75): 1.25
stool character, group's average score (HLA-B27 rats; day 13, vehicle 2.75): 1.25
stool character, group's average score (HLA-B27 rats; day 14, vehicle 2.75): 1.25
stool character, group's average score (HLA-B27 rats; day 15, vehicle 2.75): 1
stool character, group's average score (HLA-B27 rats; day 16, vehicle 3): 1
stool character, group's average score (HLA-B27 rats; day 17, vehicle 2.75): 1
stool character, group's average score (HLA-B27 rats; day 18, vehicle 2.75): 1
stool character, group's average score (HLA-B27 rats; day 19, vehicle 2.75): 1
stool character, group's average score (HLA-B27 rats; day 22, vehicle 3): 1
stool character, group's average score (HLA-B27 rats; day 23, vehicle 3): 1
stool character, group's average score (HLA-B27 rats; day 24, vehicle 3): 1
stool character, group's average score (HLA-B27 rats; day 25, vehicle 3): 1
stool character, group's average score (HLA-B27 rats; day 26, vehicle 3): 1
measurements of tissue injury in colon (HLA-B27 rats; histological analysis, 10 mg/kg orally): effective in reducing several measurements of tissue injury
Fibrosis (0-2), colon histological score, mean ± SD (HLA-B27 rats; treated orally for 4 weeks, 10 mg/kg, vehicle 1.06 ± 0.32): 0.13 ± 0.14
Ulceration (0-2), colon histological score, mean ± SD (HLA-B27 rats; treated orally for 4 weeks, 10 mg/kg, vehicle 1.44 ± 0.66): 0.19 ± 0.13
Lesion depth (0-2), colon histological score, mean ± SD (HLA-B27 rats; treated orally for 4 weeks, 10 mg/kg, vehicle 1.56 ± 0.63): 0.19 ± 0.13
Inflammation (0-3), colon histological score, mean ± SD (HLA-B27 rats; treated orally for 4 weeks, 10 mg/kg, vehicle 2.88 ± 0.14): 1.38 ± 0.43
Total score, colon histological score, mean ± SD (HLA-B27 rats; treated orally for 4 weeks, 10 mg/kg, vehicle 6.94 ± 1.51): 1.88 ± 0.14
joint inflammation score (maximal score per day 12) (Lewis rats [2]; day 1, vehicle 0.00): 0.00
joint inflammation score (maximal score per day 12) (Lewis rats [2]; day 2, vehicle 0.00): 0.00
joint inflammation score (maximal score per day 12) (Lewis rats [2]; day 3, vehicle 4.50): 2.66
joint inflammation score (maximal score per day 12) (Lewis rats [2]; day 4, vehicle 5.50): 1.83
joint inflammation score (maximal score per day 12) (Lewis rats [2]; day 5, vehicle 9.33): 2.66
joint inflammation score (maximal score per day 12) (Lewis rats [2]; day 6, vehicle 10.50): 2.16
joint inflammation score (maximal score per day 12) (Lewis rats [2]; day 7, vehicle 10.60): 2.00
joint inflammation score (maximal score per day 12) (Lewis rats [2]; day 8, vehicle 11.00): 1.66
joint inflammation score (maximal score per day 12) (Lewis rats [2]; day 9, vehicle 11.50): 2.00
joint inflammation score (maximal score per day 12) (Lewis rats [2]; day 10, vehicle 11.33): 2.00
joint inflammation score (maximal score per day 12) (Lewis rats [2]; day 11, vehicle 10.83): 1.66
joint inflammation score (maximal score per day 12) (Lewis rats [2]; day 12, vehicle 10.83): 1.66
joint inflammation score (maximal score per day 12) (Lewis rats [2]; day 13, vehicle 11.00): 2.16
joint inflammation score (maximal score per day 12) (Lewis rats [2]; day 14, vehicle 11.00): 2.00
joint inflammation score (maximal score per day 12) (Lewis rats [2]; day 15, vehicle 11.00): 2.00
joint inflammation score (maximal score per day 12) (Lewis rats [2]; day 16, vehicle 11.00): 1.00
joint inflammation score (maximal score per day 12) (Lewis rats [2]; day 17, vehicle 10.50): 1.33
Casein kinase II mRNA/18S rRNA (mean ± SEM) (casein kinase II mRNA): 1.4 ± 0.7
IC50 (human ERα): 107 nM

Source: US6723747B2, “Substituted 6H-DiBenzo[c,h]chromenes as estrogenic agents” (Wyeth, priority 2001, dated 2004)
